Experimental findings from patent US20260297070A1, “CYCLIC [COMPOUND LEFT OUT] WRN INHIBITORS” (Nimbus Wadjet, Inc., priority 2023, published 2026) are described below.

The structures appear in SMILES notation.

The target of this assay is T1, human Werner helicase (WRN-BV08, Uniprot Q14191, amino acids 517-1235 with L1074F point mutation) (Homo sapiens, UniProt Q14191, L1074F).
T1 construct: Uniprot Q14191, amino acids 517-1235 with L1074F point mutation; TEV-cleavable 8×His (C, cleaved yes); made in house; host or cells: Sf9 insect cells (baculovirus)
T1 sequence (Q14191 with tags, fused parts or gaps L1074F limits assumed): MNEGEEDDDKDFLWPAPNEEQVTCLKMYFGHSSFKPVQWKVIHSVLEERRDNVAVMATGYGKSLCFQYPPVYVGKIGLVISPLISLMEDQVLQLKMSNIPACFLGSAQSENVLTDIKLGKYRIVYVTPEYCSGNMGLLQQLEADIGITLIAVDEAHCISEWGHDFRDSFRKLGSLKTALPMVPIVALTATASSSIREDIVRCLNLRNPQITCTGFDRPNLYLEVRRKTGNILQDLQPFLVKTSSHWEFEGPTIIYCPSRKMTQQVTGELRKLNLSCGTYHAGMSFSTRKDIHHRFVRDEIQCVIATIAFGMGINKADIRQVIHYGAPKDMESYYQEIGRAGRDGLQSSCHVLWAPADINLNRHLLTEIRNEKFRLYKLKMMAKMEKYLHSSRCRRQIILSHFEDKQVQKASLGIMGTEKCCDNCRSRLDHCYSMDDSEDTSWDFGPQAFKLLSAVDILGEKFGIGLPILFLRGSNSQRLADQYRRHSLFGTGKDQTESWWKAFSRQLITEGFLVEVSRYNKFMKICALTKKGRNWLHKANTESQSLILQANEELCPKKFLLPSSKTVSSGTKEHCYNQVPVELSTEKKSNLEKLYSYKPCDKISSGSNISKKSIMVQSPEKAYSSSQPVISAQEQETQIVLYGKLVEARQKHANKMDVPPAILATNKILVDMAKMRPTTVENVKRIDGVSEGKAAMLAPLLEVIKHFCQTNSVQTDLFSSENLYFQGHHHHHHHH
Put plainly: WRN (BV08) ADP-Glo Assay. The format is biochemical. The conditions noted are these: 0.15 nM WRN, 5 μM ATP, 0.1 nM DNA duplex, 15 min preincubation, 60 min at 25° C., pH 7.5, 1% DMSO; read-out: ADP-Glo_hWRN_IC50. An outline of the steps:
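0.15 nM WRN (aa 517-1235, L1074F, Sf9-expressed, tag cleaved) preincubated 15 min at 25 °C with compound, then 5 μM ATP and 0.1 nM DNA duplex added for 60 min. Buffer: 20 mM Bicine pH 7.5, 1 mM MgCl2, 10 mM KCl, 1 mM TCEP; 1% DMSO. ADP-Glo luminescence; IC50 by 4-parameter fit.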
As for `COC(C(=O)N(Cc1ccccc1)C1C=CS(=O)(=O)C1)c1ccc(-n2cccc2)cc1` (stereo not drawn) [I-337, N-benzyl-N-(1,1-dioxo-2,3-dihydro-1lambda6-thiophen-3-yl)-2-methoxy-2-[4-(1H-pyrrol-1-yl)phenyl]acetamide], the IC50 fell in the range of 10 to 50 µM.

For the compound `O=C(Cc1ccc(-c2cccs2)cc1)N(Cc1ccncc1)C1C=CS(=O)(=O)C1` (stereo not drawn) [I-338, N-(1,1-dioxo-2,3-dihydro-1lambda6-thiophen-3-yl)-N-[(pyridin-4-yl)methyl]-2-[4-(thiophen-2-yl)phenyl]acetamide], the IC50 was 10 to 50 µM.

As for `CSc1ccc(CC(=O)N(Cc2ccncc2)C2C=CS(=O)(=O)C2)cc1` (stereo not drawn) [I-339, N-(1,1-dioxo-2,3-dihydro-1lambda6-thiophen-3-yl)-2-[4-(methylsulfanyl)phenyl]-N-[(pyridin-4-yl)methyl]acetamide], the IC50 fell in the range of 10 to 50 µM.

Turning to `O=C(Cc1ccc(-c2ccccc2)cn1)N(Cc1ccccc1)C1C=CS(=O)(=O)C1` (stereo not drawn) [I-341, N-benzyl-N-(1,1-dioxo-2,3-dihydro-1lambda6-thiophen-3-yl)-2-(5-phenylpyridin-2-yl)acetamide], the IC50 fell in the range of 10 to 50 µM.

Take `O=C(Cc1ccc(-n2cccc2)cc1)N(Cc1noc(C2CC2)n1)C1C=CS(=O)(=O)C1` (stereo not drawn) [I-342, N-[(5-cyclopropyl-1,2,4-oxadiazol-3-yl)methyl]-N-(1,1-dioxo-2,3-dihydro-1lambda6-thiophen-3-yl)-2-[4-(1H-pyrrol-1-yl)phenyl]acetamide]: the IC50 lay in the range of 10 to 50 µM.

Regarding `COc1cc(CN(C(=O)CCc2ccc(S(F)(F)(F)(F)F)cc2)C2C=CS(=O)(=O)C2)ccn1` (stereo not drawn) [I-343, N-(1,1-dioxo-2,3-dihydro-1lambda6-thiophen-3-yl)-N-[(2-methoxypyridin-4-yl)methyl]-3-[4-(pentafluoro-lambda6-sulfanyl)phenyl]propanamide], the IC50 was in the range of 10 to 50 µM.

On to `CS(=O)(=O)Nc1cccc(CN(C(=O)Cc2ccc(-n3cccc3)cc2)C2C=CS(=O)(=O)C2)c1` (stereo not drawn) [I-344, N-(1,1-dioxo-2,3-dihydro-1lambda6-thiophen-3-yl)-N-[(3-methanesulfonamidophenyl)methyl]-2-[4-(1H-pyrrol-1-yl)phenyl]acetamide], for which the IC50 fell in the range of 10 to 50 µM.

For the compound `COc1cc(-c2ccc(F)cc2)ccc1CC(=O)N(Cc1ccncc1)C1C=CS(=O)(=O)C1` (stereo not drawn) [I-345, N-(1,1-dioxo-2,3-dihydro-1lambda6-thiophen-3-yl)-2-{4′-fluoro-3-methoxy-[1,1′-biphenyl]-4-yl}-N-[(pyridin-4-yl)methyl]acetamide], the IC50 lay in the range of 10 to 50 µM.

In the case of `O=C(Cc1ccc(C23CC(C2)C3)cc1)N(Cc1ccncc1)C1C=CS(=O)(=O)C1` (stereo not drawn) [I-347, 2-(4-{bicyclo[1.1.1]pentan-1-yl}phenyl)-N-(1,1-dioxo-2,3-dihydro-1lambda6-thiophen-3-yl)-N-[(pyridin-4-yl)methyl]acetamide], the IC50 lay within 10 to 50 µM.

On to `N#Cc1cc(F)ccc1-c1ccc(CC(=O)N(Cc2ccncc2)C2C=CS(=O)(=O)C2)cc1` (stereo not drawn) [I-348, 2-{2′-cyano-4′-fluoro-[1,1′-biphenyl]-4-yl}-N-(1,1-dioxo-2,3-dihydro-1lambda6-thiophen-3-yl)-N-[(pyridin-4-yl)methyl]acetamide], for which the IC50 fell in the range of 10 to 50 µM.

Turning to `O=C(Cn1nc(-c2ccc(F)cc2)oc1=O)N(Cc1ccncc1)C1C=CS(=O)(=O)C1` (stereo not drawn) [I-349, N-(1,1-dioxo-2,3-dihydro-1lambda6-thiophen-3-yl)-2-[5-(4-fluorophenyl)-2-oxo-2,3-dihydro-1,3,4-oxadiazol-3-yl]-N-[(pyridin-4-yl)methyl]acetamide], the IC50 is 10 to 50 µM.

Turning to `O=C(Cc1ccc(-c2ccc(F)cc2)cc1CO)N(Cc1ccncc1)C1C=CS(=O)(=O)C1` (stereo not drawn) [I-350, N-(1,1-dioxo-2,3-dihydro-1lambda6-thiophen-3-yl)-2-[4′-fluoro-3-(hydroxymethyl)-[1,1′-biphenyl]-4-yl]-N-[(pyridin-4-yl)methyl]acetamide], the IC50 was in the range of 10 to 50 µM.

In the case of `O=C(Cc1ccc(S(=O)(=O)C(F)F)cc1)N(Cc1ccncc1)C1C=CS(=O)(=O)C1` (stereo not drawn) [I-351, 2-(4-difluoromethanesulfonylphenyl)-N-(1,1-dioxo-2,3-dihydro-1lambda6-thiophen-3-yl)-N-[(pyridin-4-yl)methyl]acetamide], the IC50 was in the range of 10 to 50 µM.

As to `O=C(O)c1cccc(CN(C(=O)Cc2ccc(-n3cccc3)cc2)C2C=CS(=O)(=O)C2)c1` (stereo not drawn) [I-352, 3-{[N-(1,1-dioxo-2,3-dihydro-1lambda6-thiophen-3-yl)-2-[4-(1H-pyrrol-1-yl)phenyl]acetamido]methyl}benzoic acid], the IC50 lay in the range of 10 to 50 µM.

In the case of `O=C(Cc1cc(-c2ccccc2)on1)N(Cc1ccncc1)C1C=CS(=O)(=O)C1` (stereo not drawn) [I-354, N-(1,1-dioxo-2,3-dihydro-1lambda6-thiophen-3-yl)-2-(5-phenyl-1,2-oxazol-3-yl)-N-[(pyridin-4-yl)methyl]acetamide], the IC50 was in the range of 10 to 50 µM.

On to `Cc1ccn(-c2ccc(CC(=O)N(Cc3ccncc3)C3C=CS(=O)(=O)C3)cc2)c1` (stereo not drawn) [I-355, N-(1,1-dioxo-2,3-dihydro-1lambda6-thiophen-3-yl)-2-[4-(3-methyl-1H-pyrrol-1-yl)phenyl]-N-[(pyridin-4-yl)methyl]acetamide], for which the IC50 lay in the range of 10 to 50 µM.

Consider `COC(C(=O)N(Cc1ccncc1)C1C=CS(=O)(=O)C1)c1ccc(-c2ccc(C)cc2)cc1` (stereo not drawn) [I-356, N-(1,1-dioxo-2,3-dihydro-1lambda6-thiophen-3-yl)-2-methoxy-2-{4′-methyl-[1,1′-biphenyl]-4-yl}-N-[(pyridin-4-yl)methyl]acetamide], for which the IC50 lay within 10 to 50 µM.

As to `COCC(C(=O)N(Cc1ccnc(OC)c1)C1C=CS(=O)(=O)C1)n1cc(-c2ccccc2)cn1` (stereo not drawn) [I-357, N-(1,1-dioxo-2,3-dihydro-1lambda6-thiophen-3-yl)-3-methoxy-N-[(2-methoxypyridin-4-yl)methyl]-2-(4-phenyl-1H-pyrazol-1-yl)propanamide], the IC50 lay within 10 to 50 µM.

For the compound `O=C(Cc1ccc(-n2cccc2)cc1)N(Cc1cccnc1)C1C=CS(=O)(=O)C1` (stereo not drawn) [I-358, N-(1,1-dioxo-2,3-dihydro-1lambda6-thiophen-3-yl)-N-[(pyridin-3-yl)methyl]-2-[4-(1H-pyrrol-1-yl)phenyl]acetamide], the IC50 lay in the range of 10 to 50 µM.

For `O=C(Cc1ccc(C2CC(F)(F)C2)cc1)N(Cc1ccncc1)C1C=CS(=O)(=O)C1` (stereo not drawn) [I-359, 2-[4-(3,3-difluorocyclobutyl)phenyl]-N-(1,1-dioxo-2,3-dihydro-1lambda6-thiophen-3-yl)-N-[(pyridin-4-yl)methyl]acetamide], the IC50 was 10 to 50 µM.

In the case of `O=C(Cc1ccc(-n2cccc2)cc1)N(Cc1ccccc1CO)C1C=CS(=O)(=O)C1` (stereo not drawn) [I-360, N-(1,1-dioxo-2,3-dihydro-1lambda6-thiophen-3-yl)-N-{[2-(hydroxymethyl)phenyl]methyl}-2-[4-(1H-pyrrol-1-yl)phenyl]acetamide], the IC50 lay within 10 to 50 µM.

With `O=C(Cc1ccc(-n2cccc2)cc1)N(Cc1ccc2nccn2c1)C1C=CS(=O)(=O)C1` (stereo not drawn) [I-361, N-(1,1-dioxo-2,3-dihydro-1lambda6-thiophen-3-yl)-N-({imidazo[1,2-a]pyridin-6-yl}methyl)-2-[4-(1H-pyrrol-1-yl)phenyl]acetamide], the IC50 was in the range of 10 to 50 µM.

For the compound `COc1cc(CN(C(=O)Cc2ccc(-c3cscn3)cc2F)C2C=CS(=O)(=O)C2)ccn1` (stereo not drawn) [I-363, N-(1,1-dioxo-2,3-dihydro-1lambda6-thiophen-3-yl)-2-[2-fluoro-4-(1,3-thiazol-4-yl)phenyl]-N-[(2-methoxypyridin-4-yl)methyl]acetamide], the IC50 is 10 to 50 µM.

On to `Cc1cccn1-c1ccc(CC(=O)N(Cc2cncnc2)C2C=CS(=O)(=O)C2)c(F)c1` (stereo not drawn) [I-364, N-(1,1-dioxo-2,3-dihydro-1lambda6-thiophen-3-yl)-2-[2-fluoro-4-(2-methyl-1H-pyrrol-1-yl)phenyl]-N-[(pyrimidin-5-yl)methyl]acetamide], for which the IC50 fell in the range of 10 to 50 µM.

Consider `CC(C)Oc1ccc(CC(=O)N(Cc2ccncc2)C2C=CS(=O)(=O)C2)cc1` (stereo not drawn) [I-365, N-(1,1-dioxo-2,3-dihydro-1lambda6-thiophen-3-yl)-2-[4-(propan-2-yloxy)phenyl]-N-[(pyridin-4-yl)methyl]acetamide], for which the IC50 was 10 to 50 µM.

Consider `O=C(Cc1ccc(C(F)(F)F)nc1)N(Cc1ccncc1)C1C=CS(=O)(=O)C1` (stereo not drawn) [I-367, N-(1,1-dioxo-2,3-dihydro-1lambda6-thiophen-3-yl)-N-[(pyridin-4-yl)methyl]-2-[6-(trifluoromethyl)pyridin-3-yl]acetamide], for which the IC50 was in the range of 10 to 50 µM.

As for `O=C(CCc1c[nH]c2cc(F)ccc12)N(Cc1ccncc1)C1C=CS(=O)(=O)C1` (stereo not drawn) [I-368, N-(1,1-dioxo-2,3-dihydro-1lambda6-thiophen-3-yl)-3-(6-fluoro-1H-indol-3-yl)-N-[(pyridin-4-yl)methyl]propanamide], the IC50 lay within 10 to 50 µM.

For `O=C(Cc1ccc(-n2cccc2)cc1)N(Cc1ccc[nH]c1=O)C1C=CS(=O)(=O)C1` (stereo not drawn) [I-369, N-(1,1-dioxo-2,3-dihydro-1lambda6-thiophen-3-yl)-N-[(2-oxo-1,2-dihydropyridin-3-yl)methyl]-2-[4-(1H-pyrrol-1-yl)phenyl]acetamide], the IC50 lay within 10 to 50 µM.

Take `O=C(Cc1ccc(-c2nn[nH]n2)cc1)N(Cc1ccncc1)C1C=CS(=O)(=O)C1` (stereo not drawn) [I-370, N-(1,1-dioxo-2,3-dihydro-1lambda6-thiophen-3-yl)-N-[(pyridin-4-yl)methyl]-2-[4-(2H-1,2,3,4-tetrazol-5-yl)phenyl]acetamide]: the IC50 is greater than 50 µM.

As for `O=C(Cc1nc(C(F)(F)F)cs1)N(Cc1ccncc1)C1C=CS(=O)(=O)C1` (stereo not drawn) [I-371, N-(1,1-dioxo-2,3-dihydro-1lambda6-thiophen-3-yl)-N-[(pyridin-4-yl)methyl]-2-[4-(trifluoromethyl)-1,3-thiazol-2-yl]acetamide], the IC50 is greater than 50 µM.
